pIC50: −log10 of the molar value.
Assays:
Format in all cases: cell-based
canonical Wnt signaling [1] = experiment: ST-Luc (SuperTOPFlash) Luciferase assay in HEK293 cells, 30% Wnt3a-CM; conditions: Homo sapiens, HEK293; 10 μM compound, 30% Wnt3a-CM, 24 h; relative to DMSO control
Experimental: Inhibition of Wnt signaling by compound No. 1 was quantified in vitro using a Luciferase assay in HEK293 cells transiently transfected with SuperTOPFlash plasmid (ST-Luc) (Veeman M T et al., Curr. Biol. 13: 680-685, 2003) at concentrations from 0.1-10 μM. HEK293 cells were purchased from ATCC (American Type Culture Collection) and maintained according to suppliers recommendations.
Transfection was performed using 80000 HEK293 cells seeded in 48-well plates coated with poly-L lysine. After 24 hours, 0.25 μg total plasmid DNA (0.23 μg SuperTOPFlash+0.02 μg pRL-TK (Renilla)—Promega) and 0.75 μl FuGENE6 (Roche) was combined in a total volume in 25 μl Opti-MEM® (Invitrogen) as described by the manufacturer (Roche). The transfection mixture was added to the plated cells and media were changed after 24 hours.
The Luciferase assay was performed by incubating transfected cells for 24 hours with various concentrations of compound No. 1 in 30% Wnt3a-CM (Wnt3a containing conditioned medium from L Wnt3a cells was harvested as described by ATCC). All treated reporter cells were finally lysed and the firefly luciferase and Renilla activities were measured on a 20/20n Luminometer (Turner BioSystems) as described in the Dual-Glo™ Luciferase Assay System Technical Manual (Promega).
HEK293 cells were transfected, grown and assayed as described in Example 22. 24 hours after seeding, the cells were incubated for an additional 24 hours with 10 μM concentrations of compounds in 30% Wnt3a-CM.
The percent activities shown in Table 3 are calculated relative to DMSO as a control. Some values shown are averages of multiple measurements. Compound XAV939 (Novartis; Huang et al., Nature (2009), 461, pp. 614-20) which is used as a positive control, has an activity of 7%.

canonical Wnt signaling [2] = experiment: IC50 in STF/REN HEK293 cells, 50% Wnt3a-CM; conditions: Homo sapiens; STF/REN HEK293, 50% Wnt3a-CM, 24 h
Experimental: IC50 values were calculated using STF/REN HEK293 cells prepared essentially according to Example 22. Briefly, HEK293 cells (80,000 cells per well) were seeded in 48-well plates coated with poly-L lysine. 24 hours after seeding, the cells were incubated for an additional 24 hours with various compound concentrations in 50% Wnt3a-CM. After compound exposure, the cells were lysed and the firefly luciferase and Renilla activities were measured on a 20/20n Luminometer (Turner BioSystems) as described in the Dual-Glo™ Luciferase Assay System Technical Manual (Promega).
(§1) XLfit (idbs) was used to determine the IC50 and GI50 values in inhibition experiments. The data were fit to the following formulae:
IC50: Langmuir Binding Isotherm: fit=((A+(B*x))+(((C−B)*(1−exp((−1*D)*x)))/D)) res=(y−fit)

SW480 cells = experiment: Growth inhibition (GI50) MTS assay; conditions: Homo sapiens, 72 h
Experimental: Growth inhibition curves were prepared using SW480 cells, prepared essentially according to Example 23. SW480 cells (3000 cells per well) were seeded on 96 well plates (eight replicates per treatment). 24 hours later and daily thereafter, cell culture media (including 10% FBS) was mixed with various compound concentrations or with 0.1% DMSO vehicle and then added to the wells. Sixteen wells of seeded control cells, defining incubation time zero (to =24 hour after cell seeding), were incubated with […] substrate in 100 μl of phenol-free D-MEM (Invitrogen) for 2 hours, as described in the CellTiter 96® AQueous Non-Radioactive Cell Proliferation Assay protocol (MTS, Promega). The A490 was recorded. The treatment samples were likewise measured after 72 hours. The following formula was used to determine the single well relative A490 sample values: ((Sample A490−Average A490t0)*100)/(Average A490t720.1% DMSO control−Average A490t0)
as §1
GI50: Eadie-Hofstee Model: fit=(A+((B*x)/((C*(D+1))+x))) inv=(((y−A)*(C*(D+1)))/((A+B)−y)) res=(y−fit)

[3] = system: SW480 colon carcinoma cells; experiment: MTS cell proliferation assay, Table 5; conditions: Homo sapiens; SW480, 10 μM, 72 h; relative to DMSO control; read-out: Cell proliferation (%) for test compounds
Experimental: For the experiment giving the results shown in Table 5, cells (3000 per well) were seeded on 96 well plates (eight replicates per treatment). After 24 hours, and daily thereafter, cell culture medium (including 10% FBS) was mixed with 10 μM compounds or with 0.1% DMSO vehicle and then added to the wells. Sixteen wells of seeded control cells, defining incubation time zero (t0=24 hour after cell seeding), were incubated with 20 μl substrate in 100 μl phenol free D-MEM (Invitrogen) for 2 hours, as described in the CellTiter 96® AQueous Non-Radioactive Cell Proliferation Assay protocol (Promega). The A490 was recorded. The treatment samples were likewise measured after 72 hours.
The quantity of reduced MTS product (as measured by the absorbance at 490 nm) is directly proportional to the number of living cells in the culture and thus allows a direct comparison of cell proliferation in each case. DMSO was used as a control. The following formula was used to determine single well relative A490 sample values: ((Sample A490−Average A490t0)*100)/(Average A490t720.1% DMSO control−Average A490t0)
The proliferation of SW480 cells (in percent) is the A492 value relative to that of the DMSO control.

| SMILES | pIC50 (canonical Wnt signaling [2]) | GI50 (SW480 cells) | activity at 10 µM (canonical Wnt signaling [1]) | activity at 10 µM [3] |
| --- | --- | --- | --- | --- |
| Cc1ccc(-c2noc(CSc3nnc(-c4ccncc4)n3-c3ccccc3F)n2)cc1 [Compound 42] | 6.40 | 8 µM | 14.6% |  |
| Cc1ccc(-c2nnc(CSc3nnc(-c4ccc(Cl)nc4)n3-c3ccccc3Cl)o2)cc1 [Compound 108] | 6.66 |  | 0.8% | 42% |
| Clc1ccc(-c2nnc(CSc3nnc(-c4ccncc4)n3-c3ccccc3Cl)o2)c(Cl)c1 [compound 114, 4-(5-((5-(2,4-dichlorophenyl)-1,3,4-oxadiazol-2-yl)methylthio)-4-(2-chlorophenyl)-4H-1,2,4-triazol-3-yl)pyridine] | 6.10 |  | 4.2% | 69% |
| Cc1ccc(-c2noc(CSc3nnc(-c4ccncc4)n3-c3cccc(Cl)c3C)n2)cc1 [Compound 10] | 5.48 | 13.5 µM | 10.1% |  |
| COc1ccc(-n2c(NCc3nc(-c4ccc(C)cc4)no3)nnc2-c2ccncc2)cc1 [Compound 19] | 5.06 | > 25 µM | 44.1% |  |
| Cc1ccc(-c2noc(CSc3nnc(-c4ccncc4)n3-c3cccc(C)c3C)n2)cc1 [Compound 44] | 6.24 | 22 µM | 10.4% |  |
| Cc1ccc(-c2nnc(CSc3nnc(-c4ccc(Cl)cc4Cl)n3-c3ccccc3Cl)o2)cc1 [compound 112, 3-((5-p-tolyl-1,3,4-oxadiazol-2-yl)methylthio)-5-(2,4-dichlorophenyl)-4-(2-chlorophenyl)-4H-1,2,4-triazole] | 6.16 |  | 0.3% | 39% |
| Cc1ccc(-c2nnc(CSc3nnc(-c4ccncc4)n3-c3ccccc3C)o2)cc1 [Compound 48] | 6.66 | 9 µM | 9.9% |  |
| COc1ccc(-n2c(SCc3nnc(-c4ccccc4)o3)nnc2-c2ccncc2)cc1 [Compound 11] | 5.82 | > 25 µM | 9.3% |  |
| COc1ccc(-n2c(SCC(C)(C)c3nc(-c4ccc(C)cc4)no3)nnc2-c2ccncc2)cc1 [Compound 18] | 5.23 | > 25 µM | 32.3% |  |
| Cc1ccc(-c2nnc([C@@H](C)Sc3nnc(-c4ccncc4)n3-c3ccccc3Cl)o2)cc1 [99b] | 6.79 |  | 12% | 72% |
| Cc1ccc(-c2nnc(CSc3nnc(-c4ccc(F)cc4)n3-c3ccccc3Cl)o2)cc1 [compound 115, 3-((5-p-tolyl-1,3,4-oxadiazol-2-yl)methylthio)-4-(2-chlorophenyl)-5-(4-fluorophenyl)-4H-1,2,4-triazole] |  |  | 5% | 60% |

Second part, led by results:

| pIC50 (canonical Wnt signaling [2]) | GI50 (SW480 cells) | SMILES | activity at 10 µM (canonical Wnt signaling [1]) | activity at 10 µM [3] |
| --- | --- | --- | --- | --- |
| 6.08 |  | Clc1cc(Cl)cc(-c2nnc(CSc3nnc(-c4ccncc4)n3-c3ccccc3Cl)o2)c1 [compound 117, 4-(5-((5-(3,5-dichlorophenyl)-1,3,4-oxadiazol-2-yl)methylthio)-4-(2-chlorophenyl)-4H-1,2,4-triazol-3-yl)pyridine] | 9% | 85% |
| 5.68 | 10.5 µM | COc1ccc(-n2c(SCc3nc(-c4ccc(C)cc4)no3)nnc2-c2ccccc2OC)cc1 [Compound 8] | 28.5% |  |
| 6.06 | 7.5 µM | Cc1ccc(-c2noc(CSc3nnc(-c4ccncc4)n3-c3ccccc3C)n2)cc1 [Compound 7] | 5.6% |  |
| 6.06 |  | Cc1ccc(-c2nnc(CSc3nnc(-c4ccc(F)cc4F)n3-c3ccccc3Cl)o2)cc1 [compound 110, 3-((5-p-tolyl-1,3,4-oxadiazol-2-yl)methylthio)-4-(2-chlorophenyl)-5-(2,4-difluorophenyl)-4H-1,2,4-triazole] | 2% | 50% |
| 6.82 |  | Clc1ccc(-c2nnc(CSc3nnc(-c4ccncc4)n3-c3ccccc3Cl)o2)cc1Cl [compound 130, 4-(5-((5-(3,4-dichlorophenyl)-1,3,4-oxadiazol-2-yl)methylthio)-4-(2-chlorophenyl)-4H-1,2,4-triazol-3-yl)pyridine] | 9% | 72% |
| 6.33 | < 5 µM | Cc1ccccc1-n1c(SCc2nc(-c3ccc(Cl)cc3)no2)nnc1-c1ccncc1 [Compound 41] | 9.4% |  |
| 6.26 |  | Cc1ccc(-c2nnc(CSc3nnc(-c4ccncc4)n3-c3ccccc3Cl)o2)c(Br)c1 [compound 72] | 20% | 55% |
| 6.58 |  | Cc1ccc(-c2nnc(CSc3nnc(-c4ccnc(O)c4)n3-c3ccccc3Cl)o2)cc1 [compound 116, 4-(5-((5-p-tolyl-1,3,4-oxadiazol-2-yl)methylthio)-4-(2-chlorophenyl)-4H-1,2,4-triazol-3-yl)pyridin-2-ol] | 7% | 70% |
| 6.42 |  | Cc1ccc(-c2nnc(CSc3nnc(-c4ccncc4)n3-c3ccccc3Cl)o2)cn1 [compound 68] | 17% | 60% |
| 7.23 |  | Clc1ccc(-c2nnc(CSc3nnc(-c4ccncc4)n3-c3ccccc3Cl)o2)cc1 [compound 113, 4-(5-((5-(4-chlorophenyl)-1,3,4-oxadiazol-2-yl)methylthio)-4-(2-chlorophenyl)-4H-1,2,4-triazol-3-yl)pyridine] | 4.9% | 56% |
| 7.54 |  | Cc1ccc(-c2nnc(CSc3nnc(-c4ccncn4)n3-c3ccccc3Cl)o2)cc1 [compound 105, 4-(5-((5-p-tolyl-1,3,4-oxadiazol-2-yl)methylthio)-4-(2-chlorophenyl)-4H-1,2,4-triazol-3-yl)pyrimidine] | 4.4% | 54% |
| 6.15 | 9 µM | Cc1ccc(-c2noc(CSc3nnc(-c4ccnc(O)c4)n3-c3ccccc3C)n2)cc1 [Compound 46] | 13.3% |  |
| 6.02 | 10 µM | COc1ccc(-n2c(SCc3nc(-c4ccc(Cl)cc4)no3)nnc2-c2ccncc2)cc1 [Compound 5] | 10% |  |
